# Data as given in patent US12441768B2, “Compositions and methods for treating endometriosis” (EndoMet Biosciences, Inc., priority 2018, dated 2025).
# Where a SMILES comes first, the peptide text is derived from it.
# Columns and labels:
# [1] = % Viability non-Wnt responsive cells
# [2] = molecular target: T1, β-catenin (Homo sapiens, UniProt P35222); test: KD50 measurement using competitive fluorescence polarization (FP) with labelled TCF4; type: binding; conditions: fluorescence polarization, β-catenin; for Kd: read-out: β-Cat FP KD
# T1 sequence (P35222 1-781): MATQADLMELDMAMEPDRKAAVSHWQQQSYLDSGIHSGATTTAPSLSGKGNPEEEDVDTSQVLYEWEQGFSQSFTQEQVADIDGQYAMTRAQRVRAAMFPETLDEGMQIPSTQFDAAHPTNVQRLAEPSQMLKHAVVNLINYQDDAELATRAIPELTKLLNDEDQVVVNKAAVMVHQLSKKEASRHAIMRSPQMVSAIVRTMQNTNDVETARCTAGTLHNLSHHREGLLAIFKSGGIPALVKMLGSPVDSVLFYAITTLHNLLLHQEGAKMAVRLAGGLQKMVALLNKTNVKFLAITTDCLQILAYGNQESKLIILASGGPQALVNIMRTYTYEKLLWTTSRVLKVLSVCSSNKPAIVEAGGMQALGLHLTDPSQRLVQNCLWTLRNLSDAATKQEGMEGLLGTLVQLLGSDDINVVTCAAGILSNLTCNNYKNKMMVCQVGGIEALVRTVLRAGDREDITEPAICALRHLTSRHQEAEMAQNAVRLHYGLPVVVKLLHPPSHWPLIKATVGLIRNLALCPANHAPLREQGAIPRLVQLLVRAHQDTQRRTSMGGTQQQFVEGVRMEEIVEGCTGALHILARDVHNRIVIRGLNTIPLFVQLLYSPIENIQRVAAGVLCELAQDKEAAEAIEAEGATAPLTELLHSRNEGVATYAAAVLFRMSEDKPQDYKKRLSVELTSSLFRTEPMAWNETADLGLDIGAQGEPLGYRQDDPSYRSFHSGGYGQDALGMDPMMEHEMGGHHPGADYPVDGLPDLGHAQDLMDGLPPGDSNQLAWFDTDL
# Method in brief: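 5 nM labelled TCF4 was combined with 100 nM β-catenin at room temperature, then inhibitor was titrated in serial dilutions from 10 nM to 30 uM. Polarization was read at excitation 470 nm, emission 520 nm; displacement lowers the signal. Three independent experiments.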
# [3] = molecular target: Wnt-responsive promoter (TCF/LEF); test: Wnt-dependent luciferase reporter assay; type: cell-based, murine
# Method in brief: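 EC50 (uM) derived from inhibition of luminescence in Wnt3a-stimulated murine 3T3 cells expressing luciferase under a TCF/LEF promoter, with peptides added across a concentration range and vehicle as control.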
SMILES,Kd [2],EC50 [3],β-Cat FP Hill slope [2],viability [1]
"CC[C@H](C)[C@@H]1NC(=O)[C@H](CC(C)C)NC(=O)[C@H](Cc2ccccc2)NC(=O)[C@H](Cc2c[nH]c3ccccc23)N(C)C(=O)[C@H](CCSC)NC(=O)[C@H](CCCNC(=N)N)NC(=O)[C@H]([C@@H](C)CC)NC(=O)[C@H](CCSC)NC(=O)[C@@H](N)CCCCNC(=O)CCCCCCCNC(=O)CNC(=O)[C@H](Cc2c[nH]c3ccccc23)NC(=O)[C@H](Cc2ccccc2)NC(=O)[C@H](CO)NC1=O [compound 21] (HELM PEPTIDE1{K.M.I.R.M.[meW].F.L.I.S.F.W.G.[O=C(CCCCCCCN[*:1])[*:2]]}$PEPTIDE1,PEPTIDE1,1:R3-14:R2$$$V2.0)",> 30 µM,> 30 µM,–,98.7%
"CC[C@H](C)[C@@H]1NC(=O)[C@H](CC(C)C)NC(=O)[C@H](Cc2ccc(O)cc2)NC(=O)[C@H](Cc2c[nH]c3ccccc23)NC(=O)[C@H](CCSC)NC(=O)[C@H](CCCNC(=N)N)NC(=O)[C@H](CO)NC(=O)[C@@H](N)CCCCNC(=O)[C@H](Cc2c[nH]c3ccccc23)NC(=O)[C@H](Cc2ccccc2)NC(=O)[C@H](CO)NC1=O [compound 32] (HELM PEPTIDE1{K.S.R.M.W.Y.L.I.S.F.W}$PEPTIDE1,PEPTIDE1,1:R3-11:R2$$$V2.0)",> 30 µM,> 30 µM,–,93%
CC[C@H](C)[C@H](NC(=O)[C@H](CC(C)C)NC(=O)[C@H](Cc1ccccc1)NC(=O)[C@H](Cc1c[nH]c2ccccc12)NC(=O)[C@H](CCSC)NC(=O)[C@H](CCCNC(=N)N)NC(=O)[C@H](CO)NC(=O)[C@@H](N)CCSC)C(=O)N[C@@H](CO)C(=O)N[C@@H](Cc1ccccc1)C(=O)N[C@@H](Cc1c[nH]c2ccccc12)C(=O)N[C@H](C(=O)NCC(=O)O)[C@@H](C)O [compound 44] (H-MSRMWFLISFWTG-OH),–,15 to 22.5 µM,–,102%
CC[C@H](C)[C@H](NC(=O)[C@H](CC(C)C)NC(=O)[C@H](Cc1ccccc1)NC(=O)[C@H](Cc1c[nH]c2ccccc12)NC(=O)[C@@H](NC(=O)[C@H](CCCNC(=N)N)NC(=O)[C@H](CO)NC(=O)[C@@H](N)CCSC)[C@@H](C)O)C(=O)N[C@@H](CO)C(=O)N[C@@H](Cc1ccccc1)C(=O)N[C@@H](Cc1c[nH]c2ccccc12)C(=O)NCC(=O)O [compound 48] (H-MSRTWFLISFWG-OH),> 30 µM,7.5 to 15 µM,–,101%
CC[C@H](C)[C@H](NC(=O)[C@H](CC(C)C)NC(=O)[C@H](Cc1ccccc1)NC(=O)[C@H](C)N(C)C(=O)[C@H](CCSC)NC(=O)[C@H](CCCNC(=N)N)NC(=O)[C@H](CO)NC(=O)[C@@H](N)CCSC)C(=O)N[C@@H](CO)C(=O)N[C@@H](Cc1ccccc1)C(=O)N[C@@H](Cc1c[nH]c2ccccc12)C(=O)NCC(=O)O [compound 50] (HELM PEPTIDE1{M.S.R.M.[meA].F.L.I.S.F.W.G}$$$$V2.0),1 to 10 µM,> 30 µM,0.76,96.7%
CC[C@H](C)[C@H](NC(=O)[C@H](CC(C)C)NC(=O)[C@@H](NC(=O)[C@H](Cc1c[nH]c2ccccc12)NC(=O)[C@H](CCSC)NC(=O)[C@H](CCCNC(=N)N)NC(=O)[C@H](CO)NC(=O)[C@@H](N)CCSC)[C@@H](C)CC)C(=O)N[C@@H](CO)C(=O)N[C@@H](Cc1ccccc1)C(=O)N[C@@H](Cc1c[nH]c2ccccc12)C(=O)NCC(=O)O [compound 51] (H-MSRMWILISFWG-OH),–,7.5 to 15 µM,–,98.5%
CC[C@H](C)[C@H](NC(=O)[C@H](CC(C)C)NC(=O)[C@H](Cc1ccccc1)NC(=O)[C@H](CC(C)C)NC(=O)[C@H](CCSC)NC(=O)[C@H](CCCNC(=N)N)NC(=O)[C@H](CO)NC(=O)[C@@H](N)CCSC)C(=O)N[C@@H](CO)C(=O)N[C@@H](Cc1ccccc1)C(=O)N[C@@H](Cc1c[nH]c2ccccc12)C(=O)NCC(=O)O [compound 52] (H-MSRMLFLISFWG-OH),> 30 µM,15 to 22.5 µM,–,87.2%
CC[C@H](C)[C@H](NC(=O)[C@H](CC(C)C)NC(=O)[C@H](Cc1ccccc1)NC(=O)[C@H](Cc1c[nH]c2ccccc12)N(C)C(=O)[C@H](CCSC)NC(=O)[C@H](CCCNC(=N)N)NC(=O)[C@@H](NC(=O)[C@@H](N)CCSC)[C@@H](C)CC)C(=O)N[C@@H](CO)C(=O)N[C@@H](Cc1ccccc1)C(=O)N[C@@H](Cc1c[nH]c2ccccc12)C(=O)NCC(=O)O [compound 53] (HELM PEPTIDE1{M.I.R.M.[meW].F.L.I.S.F.W.G}$$$$V2.0),> 30 µM,> 30 µM,–,103%
CC[C@H](C)[C@H](NC(=O)[C@H](CC(C)C)NC(=O)[C@H](Cc1ccccc1)NC(=O)[C@H](Cc1c[nH]c2ccccc12)NC(=O)[C@H](CCSC)NC(=O)[C@H](CCCNC(=N)N)NC(=O)[C@H](CO)NC(=O)[C@@H](N)CCSC)C(=O)N[C@@H](CO)C(=O)N[C@@H](CO)C(=O)N[C@@H](Cc1c[nH]c2ccccc12)C(=O)NCC(=O)O [compound 54] (H-MSRMWFLISSWG-OH),1 to 10 µM,15 to 22.5 µM,0.7,98.3%

# The next lines start with results.
Kd [2],EC50 [3],β-Cat FP Hill slope [2],SMILES,viability [1]
> 30 µM,< 7.5 µM,–,CC[C@H](C)[C@H](NC(=O)[C@H](CC(C)C)NC(=O)[C@H](Cc1ccccc1)NC(=O)[C@H](Cc1c[nH]c2ccccc12)NC(=O)[C@H](CCSC)NC(=O)[C@H](CCCNC(=N)N)NC(=O)[C@H](CO)NC(=O)[C@@H](N)CCSC)C(=O)N[C@@H](CO)C(=O)N[C@@H](Cc1ccccc1)C(=O)N[C@@H](Cc1c[nH]c2ccccc12)C(=O)NCC(=O)O [compound 41] (H-MSRMWFLISFWG-OH),96.1%
0.4 to 1 µM,< 7.5 µM,0.9,CC[C@H](C)[C@H](NC(=O)[C@H](CC(C)C)NC(=O)[C@H](Cc1ccccc1)NC(=O)[C@H](Cc1c[nH]c2ccccc12)NC(=O)[C@@H](N)CCSC)C(=O)N[C@@H](CO)C(=O)N[C@@H](Cc1ccccc1)C(=O)N[C@@H](Cc1c[nH]c2ccccc12)C(=O)N(C)[C@@H](C)C(=O)NCC(=O)O [compound 45] (HELM PEPTIDE1{M.W.F.L.I.S.F.W.[meA].G}$$$$V2.0),101%
–,< 7.5 µM,–,CC[C@H](C)[C@H](NC(=O)[C@H](CC(C)C)NC(=O)[C@H](Cc1ccccc1)NC(=O)[C@H](Cc1c[nH]c2ccccc12)NC(=O)[C@H](CCSC)NC(=O)[C@H](CCCNC(=N)N)NC(=O)[C@H](CO)NC(=O)[C@@H](N)CCSC)C(=O)N[C@@H](CS)C(=O)N[C@@H](Cc1ccccc1)C(=O)N[C@@H](Cc1c[nH]c2ccccc12)C(=O)NCC(=O)O [compound 46] (H-MSRMWFLICFWG-OH),101%
0.4 to 1 µM,< 7.5 µM,2.29,CC[C@H](C)[C@H](NC(=O)[C@H](CC(C)C)NC(=O)[C@H](Cc1ccccc1)NC(=O)[C@H](Cc1c[nH]c2ccccc12)NC(=O)[C@@H](N)CCSC)C(=O)N[C@@H](CO)C(=O)N[C@@H](Cc1ccccc1)C(=O)N[C@@H](Cc1c[nH]c2ccccc12)C(=O)N[C@@H](CCC(=O)O)C(=O)NCC(=O)O [compound 47] (H-MWFLISFWEG-OH),103%
> 30 µM,< 7.5 µM,–,CC[C@H](C)[C@H](NC(=O)[C@H](CC(C)C)NC(=O)[C@H](Cc1ccccc1)NC(=O)[C@H](Cc1c[nH]c2ccccc12)NC(=O)[C@@H](N)CCSC)C(=O)N[C@@H](CO)C(=O)N[C@@H](Cc1ccccc1)C(=O)N[C@@H](Cc1c[nH]c2ccccc12)C(=O)N[C@@H](CCCNC(=N)N)C(=O)NCC(=O)O [compound 49] (H-MWFLISFWRG-OH),103%
